Data reported in US10537611B2, “Methods of treating lung cancer” (Five Prime Therapeutics, Inc., priority 2011, dated 2020).

How the values were obtained:
[1] = tested on: U-87 xenograft model; assay: U-87 xenograft tumor growth inhibition; type: in vivo, mouse; conditions: Glioblastoma U-87; IP 15 mg/kg BIW; non-amplified; P ns
Procedure: (§1) Percentage tumor growth inhibition by FGFR1-ECD.339-Fc was determined by area-under-the-curve (AUC) analysis of xenograft growth curves treated with FGFR1-ECD.339-Fc compared to albumin control. […] The difference in FGFR1-ECD.339-Fc-mediated xenograft inhibition between FGFR1 gene amplified and non-amplified lung cancer xenograft models was statistically significant (P=0.0333).
(§2) Also shown in Table 5 are the dosing schedule for FGFR1-ECD.339-Fc in a mouse xenograft model, the percent tumor growth inhibition (TGI (%)) and the statistical significance of the tumor growth inhibition (P Value), as well as whether the FGFR1 gene is amplified in the cell line.
(§3) An exemplary xenograft experiment is as follows. For Caki-1 and MSTO-211H, five million cells were implanted subcutaneously over the right flank of SCID mice (N=10 per group). […] Representative tumor growth curves are shown for a renal cancer, Caki-1, (A), and mesothelioma, MSTO-211H, (B) xenograft cancer model. […] In the MSTO-211H mesothelioma model, FGFR1-ECD.339-Fc administration reduced tumor growth (FIG. 16b) by 64% (P<0.0001).

[2] = tested on: HCT116 xenograft model; assay: HCT116 xenograft tumor growth inhibition; type: in vivo, mouse; conditions: Colon HCT116; IP 15 mg/kg BIW; FGFR1 non-amplified; P ns
Procedure: as §1, §2, §3

[3] = tested on: NCI-H520 xenograft model; assay: NCI-H520 NSCLC xenograft tumor growth inhibition; type: in vivo, mouse; conditions: Lung NCI-H520, IP 20 mg/kg BIW, FGFR1 amplified, P < 0.05
Procedure: Six week old female SCID mice were purchased from Charles River Laboratories (Wilmington, Mass.) and were acclimated for 1 week before the start of the study. Human non-small cell lung cancer (NSCLC) cell line NCI-H520 was used as the tumor model and was purchased from ATCC (Manassas, Va.; Cat. No. HTB-182). The cells were cultured for three passages in RPMI-1640 Medium+10% FBS+2 mM L-glutamine at 37° C. in a humidified atmosphere with 5% CO2. When the cultured cells reached 85-90% confluence, cells were harvested and resuspended in cold Ca^2+ and Mg^2+ free phosphate buffered saline (PBS) containing 50% Matrigel at 5×10^7 cells per milliliter. The cells were implanted subcutaneously over the right flank of the mice at 5×10^6 cells/100 μl/mouse. One day following cell implantation mice were sorted and randomized (n=10) and treatment initiated as described below. […]
Tumor sizes were measured in each mouse on days 11, 18, 25, 32, 39 and 46 following the day of tumor cell inoculation. The length and width of each tumor was measured using calipers and the tumor size calculated according to the formula: Tumor size (mm^3)=[…] Mice were euthanized as a “cancer death” when the subcutaneous tumor volumes exceeded 2000 mm^3 or when the tumors became excessively necrotic.

[4] = tested on: A498 xenograft model; assay: A498 xenograft tumor growth inhibition; type: in vivo, mouse; conditions: Renal A498; IP 15 mg/kg BIW; non-amplified; P ns
Procedure: as §1, §2, §3

[5] = tested on: FGF-2 plus VEGF-A induced angiogenesis; assay: Matrigel plug assay, FGF-2 plus VEGF-A induced angiogenesis; type: in vivo, mouse; conditions: C57BL/6 mice; 15 or 45 mg/kg
Procedure: (§4) Recombinant human FGF-2 (final concentration 250 ng/ml; Peprotech) and/or recombinant human VEGF-A (final concentration 100 ng/ml; Peprotech) were added to matrigel (BD Biosciences, Franklin Lakes, N.J.) with sodium heparin (2 units/ml; Sigma). FGF-2 and/or VEGF-A containing matrigel plugs (one per animal) were implanted subcutaneously in the abdomen region of C57BL/6 mice (Charles River, Wilmington, Mass.). FGFR1-ECD.339-Fc was administered by tail vein injection on days 1, 4, and 7 post-matrigel implantation. On day 9, plugs were excised and processed for hematoxylin and eosin (H&E) staining. Digital images of the stained matrigel sections were generated using a Retiga 2000R digital camera (QImaging, Burnaby, BC). Image analysis was performed using Image-Pro Plus 5.1 (Media Cybernetics Inc., Silver Spring, Md.). Neovascularization was defined as the cellular response in the Matrigel plugs, consisting of newly formed blood vessels and migrated cells.

[6] = tested on: Du145 xenograft model; assay: Du145 xenograft tumor growth inhibition; type: in vivo, mouse; conditions: Prostate Du145; IP 0.15 mg/kg 3×/w; non-amplified; P ns
Procedure: as §1, §2, §3

[7] = tested on: NCI-H2126 xenograft model; assay: NCI-H2126 xenograft tumor growth inhibition; type: in vivo, mouse; conditions: Lung NCI-H2126; IP 15 mg/kg BIW; non-amplified; P ns
Description: (§5) The impact of FGFR1-ECD.339-Fc on tumor growth was compared between FGFR1 gene amplified and non-amplified lung cancer xenograft models. Lung cell lines without FGFR1-amplification examined in this experiment were as follows: A549, NCI-H460, NCI-H226, NCI-H2126, NCI-H441, NCI-H358, NCI-H522 and Colo699. Non-amplified cell lines were purchased from ATTC (Manassas, Va.) and cultured according to supplier instructions. Lung cancer xenograft models using non-FGFR1 gene amplified cell lines were carried out substantially as described in Example 2.
as §1

[8] = tested on: FGF-2 induced angiogenesis; assay: Matrigel plug assay, FGF-2 induced angiogenesis; type: in vivo, mouse; conditions: C57BL/6 mice; 5 mg/kg or higher, tail vein days 1, 4, 7
Procedure: as §4

[9] = tested on: NCI-H441 xenograft model; assay: NCI-H441 xenograft tumor growth inhibition; type: in vivo, mouse; conditions: Lung NCI-H441; IP 15 mg/kg BIW; non-amplified; P ns
Description: as §5, §1

[10] = Histological analysis of 55 tissues in rats; type: in vivo, rat; conditions: high-dose
Procedure: At the 200 mg/kg/qwk dose the maximal plasma concentration of the drug was 3.6 and 4.2 mg/ml for female and male rats, respectively (FIG. 18A).

FGFR1-ECD.339-Fc: human FGFR1 extracellular domain ending at amino acid 339 fused to an Fc; SEQ ID NO: 6 (mature form), SEQ ID NO: 5 with signal peptide
TGI (%) [1]: 0% | TGI (%) [2]: 0% | TGI (%) [3]: 47% | TGI (%) [4]: 7% | in vivo angiogenesis, matrigel plug with FGF-2 plus VEGF-A [5]: completely blocked | TGI (%) [6]: 31% | TGI (%) [7]: 0% | in vivo angiogenesis induced by matrigel plug with FGF-2 [8]: completely blocked | TGI (%) [9]: 0% | histological changes (hyperphosphatemia-related calcium-phosphorus deposition) [10]: failed to reveal any changes
